Positions of bridges follow the written chain, without caps; N, C: chain ends. Residues, ends and D or L forms follow the SMILES beside them. No end group written: not given here.
Columns and labels:
rat ASIC3 channel = molecular target: T1, rat ASIC3 channel (Rattus norvegicus, UniProt O35240); assay: Two-electrode voltage clamp, rat ASIC3 in X. laevis oocytes; format: cell-based; conditions: pH 5.5 stimulus, mean ± S.E.M., 5 cells
T1 construct: expressed in transfected cells; host or cells: Xenopus laevis oocytes injected with mRNA made from pcDNA3.1-rat ASIC3
T1 sequence (O35240 1-533): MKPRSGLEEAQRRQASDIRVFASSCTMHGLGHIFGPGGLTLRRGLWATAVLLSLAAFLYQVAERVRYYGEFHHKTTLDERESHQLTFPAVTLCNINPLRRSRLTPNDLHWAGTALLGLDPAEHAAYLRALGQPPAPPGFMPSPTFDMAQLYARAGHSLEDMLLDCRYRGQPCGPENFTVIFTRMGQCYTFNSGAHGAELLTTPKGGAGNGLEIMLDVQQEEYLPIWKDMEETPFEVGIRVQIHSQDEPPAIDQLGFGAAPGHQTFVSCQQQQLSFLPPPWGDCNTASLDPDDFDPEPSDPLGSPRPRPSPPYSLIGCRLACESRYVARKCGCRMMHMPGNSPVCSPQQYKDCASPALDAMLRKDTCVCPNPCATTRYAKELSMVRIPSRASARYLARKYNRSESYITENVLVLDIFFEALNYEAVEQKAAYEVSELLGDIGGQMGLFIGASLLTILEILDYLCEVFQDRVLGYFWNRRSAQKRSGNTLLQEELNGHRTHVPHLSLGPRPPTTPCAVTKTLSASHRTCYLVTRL
Method: (§1) Figure 3 The effect of mutant peptides S16K and A23K on rat ASIC1a and ASIC3 channels. […] (B) Dose–response curves for the inhibitory effect of mutant peptides on ASIC1a. Each data point represents data from 5 cells. (C) Representative current traces of Ugr9-1, S16K, and A23K at a concentration of 12.5 µM on ASIC3. […] Each point represents data from 5 cells. The depicted currents were induced by a pH 5.5 stimulus following a conditioning pH of 7.4, with peptides applied for 30 s before the pH stimulus. The holding potential (Vh) was −50 mV, and the time interval between applications ranged from 1 to 2 min. Data are presented as mean ± S.E.M.
(§2) A small portion of the ovary was isolated from frogs under anesthesia induced by a 0.17% solution of procaine methanesulphonate (MS222) (Sigma), followed by treatment with collagenase (1 mg/mL) at room temperature for 2 h. Oocytes at stages IV and V, devoid of follicular membranes, were transferred to ND-96 medium (containing 96 mM NaCl, 5 mM HEPES, 2 mM KCl, 1.8 mM CaCl2, 1 mM MgCl2, pH 7.4). mRNA synthesis was performed from pcDNA3.1 vectors (Invitrogen, Carlsbad, CA, USA) containing the rat ASIC3 gene, as well as pCI vectors containing genes for rat ASIC1a, its mutant analogues, and ASIC1b. mRNA (2.5–10 ng) was then injected into the oocytes. For the ASIC1a/3 heteromeric channels, the mRNA encoding the ASIC1a and ASIC3 subunits were injected in a 1:5 ratio, respectively. Subsequently, the oocytes were incubated for 2–3 days at a temperature of 17–19 °C in ND96 medium supplemented with gentamicin and streptomycin (20 µg/mL each).
(§3) Whole-cell electrophysiological recordings of ASIC channels were conducted using a two-electrode voltage-clamp setup. Microelectrodes were filled with 3 M KCl. Recordings from oocytes were carried out at a holding potential of −50 mV, with data filtered at 10 Hz and sampled at a rate of 100 Hz using an L780M ADC (LCard, Moscow, Russia). The synchronized delivery of solutions into the chamber and recording of electrophysiological results were carried out using in-house software v.2. Activation of ASIC channels occurred through rapid pH changes in the solution, achieved by replacing the working solution in the chamber with ND96-based solutions at varying pH levels. Specifically, HEPES was substituted with 10 mM MES for pH 5.5–6.5 and MOPS for pH 6.7–7.0.
(§4) Fresh peptide solutions were meticulously prepared in ND96 buffer with a pH of 7.43 immediately before experiments, with strict control over the pH levels. Peptides were applied for 30 s at a conditioning pH of 7.43 before acid stimulation of the channel. The interval between applications was maintained at a minimum of 1.5 to 2 min.
(§5) Electrophysiological data analysis was conducted using OriginPro 2018 software (OriginLab, Northampton, MA, USA). Dose–response relationships for Ugr9a-1, S16K, and A23K peptides were fitted using a Hill function: F1(x) = A − A/(1 + (x/IC50)^nH), where F1(x) represents the amplitude of the current at concentration x of the peptide, A is the maximum amplitude of the current, IC50 is the half-maximum inhibitory concentration of the peptide, and nH is the Hill coefficient.

rat ASIC1a channel = molecular target: T2, rat ASIC1a channel (Rattus norvegicus, UniProt P55926); assay: Two-electrode voltage clamp, rat ASIC1a in X. laevis oocytes; format: cell-based; conditions: pH 5.5 stimulus, mean ± S.E.M., 5 cells
T2 construct: expressed in transfected cells; host or cells: Xenopus laevis oocytes injected with mRNA made from a pCI-rASIC1a plasmid
T2 sequence (P55926 1-526): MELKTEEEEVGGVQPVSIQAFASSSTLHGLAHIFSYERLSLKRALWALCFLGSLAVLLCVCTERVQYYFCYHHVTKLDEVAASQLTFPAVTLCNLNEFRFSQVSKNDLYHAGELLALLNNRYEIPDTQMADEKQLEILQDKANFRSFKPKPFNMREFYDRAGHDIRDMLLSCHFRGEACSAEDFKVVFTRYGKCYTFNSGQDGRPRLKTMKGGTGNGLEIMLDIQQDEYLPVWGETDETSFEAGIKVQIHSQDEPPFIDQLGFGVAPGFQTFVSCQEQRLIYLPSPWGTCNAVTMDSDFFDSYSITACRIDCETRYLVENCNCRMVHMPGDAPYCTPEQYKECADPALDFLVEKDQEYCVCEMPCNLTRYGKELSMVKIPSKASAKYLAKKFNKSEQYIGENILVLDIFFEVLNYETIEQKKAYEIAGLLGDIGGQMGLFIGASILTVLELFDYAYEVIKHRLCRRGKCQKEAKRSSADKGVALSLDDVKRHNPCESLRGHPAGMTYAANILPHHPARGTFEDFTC
Method: as §1, §2, §3, §4, §5

[1] = cited from earlier work; for analgesic effect on thermal hypersensitivity caused by inflammation: ref [31],[32]; for analgesic effects: ref [16],[17]
Text: Selective ligands targeting specific ASIC isoforms are invaluable for structural and functional investigations. Peptide ligands sourced from various animal venoms have emerged as such tools. […] Bot ... || The 29-amino acid peptide Ugr9a-1, isolated from the venom of the northern sea anemone Urticina grebelnyi, represents a structural class of toxins termed “boundless β-hairpin”. […] While the significant involvement of ASIC3 channels in acid-induced, chronic neuropathic and inflammatory pain has been extensively reported, the role of ASIC1a remains less clear.

ASIC1a channel = conditions: cited from earlier work
Text: Selective ligands targeting specific ASIC isoforms are invaluable for structural and functional investigations. Peptide ligands sourced from various animal venoms have emerged as such tools. […] Bot ...

[2] = system: ASIC1a D355A mutant channel; conditions: ref [23],[28]; cited from earlier work
Text: (§6) Electrophysiological experimentation confirmed the activity of recombinant S16K and A23K mutants against rat ASIC1a channels. […] This fact was in good agreement with molecular docking results that predicted tighter interactions of the lysine residue at position 23 with Asp355 and Glu357 residues of the channel. […] To confirm the critical role of th ...

[3] = system: ASIC1a E357A mutant channel; conditions: ref [23],[28]; cited from earlier work
Text: as §6

[4] = molecular target: rat ASIC3 channel (homomeric) (rat) (UniProt O35240)

CC[C@H](C)[C@H](N)C(=O)N[C@@H](CO)C(=O)N[C@H](C(=O)N[C@@H](CC(=O)O)C(=O)N1CCC[C@H]1C(=O)N1CCC[C@H]1C(=O)N[C@H]1CSSC[C@@H]2NC(=O)[C@H](CC(N)=O)NC(=O)CNC(=O)[C@H](CCCCN)NC(=O)CNC(=O)[C@H](CC(=O)O)NC(=O)[C@H](CCCNC(=N)N)NC(=O)[C@H](Cc3c[nH]cn3)NC(=O)[C@H](Cc3ccc(O)cc3)NC(=O)[C@H](CSSC[C@@H](C(=O)NCC(=O)N[C@@H](C)C(=O)N[C@H](C(=O)O)C(C)C)NC(=O)CNC(=O)[C@H](Cc3ccc(O)cc3)NC(=O)[C@H](C)NC(=O)[C@H](CC(=O)O)NC(=O)[C@H](Cc3ccc(O)cc3)NC(=O)[C@H](C(C)C)NC2=O)NC(=O)[C@H](Cc2ccccc2)NC(=O)[C@H](CCCNC(=N)N)NC1=O)[C@@H](C)CC [S16K] (H-ISIDPPCRFCYHRDGKGNCVYDAYGCGAV-OH; disulfide 7-19, 10-26)
nH (rat ASIC3 channel; inhibition of rat ASIC3, conditioning pH 7.4): 2.16 ± 0.24 | IC50 (rat ASIC3 channel; rat ASIC3, X. laevis oocytes, TEVC, Vh −50 mV, conditioning pH 7.4, peptide 30 s before stimulus): 35.8 ± 4.03 µM | Hill slope (nH) (rat ASIC1a channel; inhibition of rat ASIC1a, conditioning pH 7.4): 2.86 ± 0.09 | IC50 (rat ASIC1a channel; rat ASIC1a, X. laevis oocytes, TEVC, Vh −50 mV, conditioning pH 7.4, peptide 30 s before stimulus, read-out: half-maximal inhibitory concentration (IC50)): 22.7 ± 0.42 µM

COc1cc2c(cc1O)[C@H](Cc1ccc(Oc3cc(C[C@@H]4NCCc5cc(OC)c(O)cc54)ccc3O)cc1)NCC2 [lindoldhamine]
analgesic effect on thermal hypersensitivity caused by inflammation [1]: substantial analgesic effects

O=C(O)C[C@H](C(=O)O)[C@@H](OC(=O)C1=Cc2cc(O)c(O)cc2[C@@H](c2ccc(O)c(O)c2)[C@@H]1C(=O)O[C@@H](C(=O)O)[C@H](CC(=O)O)C(=O)O)C(=O)O [sevanol]
analgesic effect on thermal hypersensitivity caused by inflammation [1]: substantial analgesic effects

Mamb-1 (LKCYQHGKVVTCHRDMKFCYHNTGMPFRNLKLILQGCSSSCSETENNKCCSTDRCNK; ends and bridges not checked; cysteine pairing not given here; UniProt P0DKR6 22-78, looked up)
modulation of ASIC1-containing channels (ASIC1a channel; ref [14],[15]): negatively modulates ASIC1-containing channels but by stabilizing the closed state | analgesic effects [1]: demonstrate analgesic effects | effect of D355A channel mutation on inhibitory potential [2]: did not substantially alter the inhibitory potential | effect of E357A channel mutation on inhibitory potential [3]: did not substantially alter the inhibitory potential

PcTx1 (EDCIPKWKGCVNRHGDCCEGLECWKRRRSFEVCVPKTPKT; ends and bridges not checked; cysteine pairing not given here; UniProt P60514 1-40, looked up)
modulation of ASIC1a (ASIC1a channel; ref [11],[12],[13]): selectively modulates ASIC1a and ASIC1a-containing channels by stabilizing the desensitized state | analgesic effects [1]: demonstrate analgesic effects

Ugr9a-1 peptide from the venom of the sea anemone Urticina grebelnyi
IC50 of inhibition of the pH 5.5-evoked current of rASIC3, two-electrode voltage clamp on X. laevis oocytes [4]: 14.2 µM
